# Results taken from a melting point compilation (Tetko et al.; mined from patent text by program, amines drawn as free bases though some values may be those of a salt).
row,Structure (SMILES),melting point [°C]
1,CCOc1ccc2c(c1)n(C1CCCCC1)c(=O)n2S(=O)(=O)c1ccc(C(=O)NC(C)(C)CC(C)(C)C)cc1OC,180
2,COc1cc(OCCCN2CCc3cc(OC)c(OC)cc3C2)ccc1NC(=O)c1cccc2c(=O)c3cccc(C)c3[nH]c12,183 to 184
3,Nc1cccc(-c2nc3ncccc3o2)c1,179 to 180
4,O=Cc1ccc(C(=O)Nc2nccs2)cc1,189
5,CCOC(=O)C1=C(C)Nc2nc(N3CCOCC3)nc(N3CCOCC3)c2C1c1cccnc1Cl (stereo not drawn),185
6,CC(C)(C)Nc1cc(N2CCNCC2)nc(N2CCCC2)n1,140 to 145
7,COC(=O)CCCC=Cc1nn(-c2ccc(F)cc2)c2c1CCC2,67 to 68
8,O=c1oc2cc(OCc3nnn[nH]3)cc(OCc3nnn[nH]3)c2c2c1CC(c1ccccc1)CC2 (stereo not drawn),235 to 245
9,CCn1c2c(c3ccccc31)C(=O)NCC2,203 to 204
10,CC1N=C(c2ccccc2)c2cc(Br)ccc2NC1=O (stereo not drawn),210 to 212
11,NC(=O)c1cc2cc(Cl)ccc2o1,200 to 202
12,Oc1ccc(-c2nc3ccccc3s2)cc1,108 to 109
13,CC(=O)c1cscc1O,44 to 47
14,CCN1CCc2ccc(Nc3ncc(C#N)c(Nc4ccccc4C(=O)NC)n3)cc2CC1,164 to 170
15,CC1(c2[nH]c3ccccc3c2C2=C(Cl)C(=O)C=C(Cl)C2=O)CC1,170 to 171
16,Cc1ccc2c(c1)c(N1CCNCC1)c(C#N)c(=O)n2C,274
17,COc1ccc(-n2cc(CCCOc3c(CC(=O)O)cccc3OC)c(C(C)C)n2)nn1,124 to 125
18,NC(=O)N(O)Cc1ccc(OCc2csc(-c3ccccc3)n2)cc1,161 to 164
19,C=CCOC(=O)CC(C(C)=O)S(=O)(=O)c1ccccc1 (stereo not drawn),62 to 64
20,Cc1cccc2c1nc(COc1ccc(Cl)cc1)n2CCC(C)C(=O)NCCCN1CCCCC1 (stereo not drawn),102 to 103
21,CN1CCN(c2ccc(Nc3ncc4ccc(-c5cccc(CN(C)S(C)(=O)=O)c5)n4n3)cc2)CC1,229 to 230
22,COc1cc(Cn2cnc3cccnc32)ccc1C(=O)N(C1CCCC1)C1CC(C)CC(C)C1 (stereo not drawn),80 to 82
23,CC(CN=C1c2cccc3cccc(c23)N1C(c1ccccc1)c1ccccc1)Cn1ccnc1 (stereo not drawn),51 to 56
24,CCOC(=O)Cc1ccc(Cn2c(-c3ccc(OC4CCCC4)cc3)c(C)c3cc(OCc4ccccc4)ccc32)cc1,96 to 98
25,CCOC(=O)c1cc2ccc(-c3ccc(C)cc3)cc2n1C,98 to 99

row,Structure (SMILES),melting point [°C]
1,COCCCOc1cc(CC(CC2C(OC(=O)OC(C)(C)C)CC(C(C)(C)O)C(=O)N2C(=O)OC(C)(C)C)C(C)C)ccc1OC (stereo not drawn),118 to 119
2,COc1ccc(C(C#Cc2cccc(-c3nnc(C)o3)c2)CC(=O)O)cc1OC1CCCC1 (racemic),110 to 114
3,Cc1ccccc1NC(=O)Nc1ccc(CN)cc1,142 to 143
4,O=C(N[C@H]1CC[C@H](CCN2CCN(c3nccc4c3CCO4)CC2)CC1)C1(O)CC1,174
5,O=C1c2cc(N3CCN(Cc4ccccc4)CC3)ccc2OC12CC2,125 to 126
6,NC(=O)c1ncn2c1NCCC2c1cccc(C(F)(F)F)c1 (stereo not drawn),179 to 181
7,CN(Cc1cc(C(F)(F)F)cc(C(F)(F)F)c1)C(=O)c1oc(=O)c2ccc(Cl)cc2c1-c1ccccc1,170 to 171
8,c1ccc(COc2ncnc3nc[nH]c23)cc1,175 to 177
9,CNc1nc(OC)ccc1Nc1nc(Nc2cc3c(cc2OC)CCN(CC(=O)N(C)C)CC3)ncc1Cl,191 to 194
10,CN(CCNC(=NCCSCc1csc(NC(=N)N)n1)NC#N)CCN(Cc1ccc(F)cc1)c1ccccn1,109
11,CCCCOC(=O)C=C(C)C=CC=C(C)C=Cc1c(C)cc(OC)c(C)c1C,80 to 81
12,COC(=O)C1Cc2c([nH]c3ccccc23)CN1C(=S)Sc1cccs1 (stereo not drawn),150 to 152
13,O=C(O)CCNC(=O)c1cc([N+](=O)[O-])c2ccccc2c1O,254
14,COC(=O)NCCCn1c(-c2ccc(Br)cc2)csc1=Nc1ccccc1,132 to 134
15,Oc1ccc(O)c(-c2nc3ccc(O)cc3o2)c1,278 to 280
16,CC(=O)Nc1nc2ccc(S(=O)(=O)n3c(CCCC(=O)O)cc4cc(Cl)ccc43)cc2s1,> 250
17,Oc1ccc(Cl)cc1C(O)(Cc1ccccc1)c1ccccc1 (stereo not drawn),128
18,O=C(CC1CCCC1)Nc1ccc2c(c1)C(=O)CCC2,117 to 118
19,Cc1cnc2c(S(=O)(=O)N[C@@H](CCCc3cn(C(c4ccccc4)(c4ccccc4)c4ccccc4)cn3)C(=O)O)cccc2c1,170
20,CCCC(=NOCC)C1=C(O)CC(c2c(C)c3c(c(C)c2Cl)CC(C)(C)C3)CC1=O (stereo not drawn),93 to 94
21,Cc1cc(-n2ccnc2)c2cccc(OCc3c(Cl)ccc(S(=O)(=O)N4CCC[C@H]4C(=O)NCc4ccccc4)c3Cl)c2n1,116
22,O=C(CCS)N[C@@H](Cc1c[nH]cn1)C(=O)O,219
23,O=C(Cc1ccccc1)CC1c2ccccc2C(=O)N1c1ccc2ccc(Cl)nc2n1 (stereo not drawn),182
24,CC(C)(CO)NS(=O)(=O)c1cccc(NC(=O)c2cnn3c(C(F)F)cc(-c4ccc(Cl)cc4)nc23)c1,229
25,O=C1Nc2ccccc2C1CCCCN1CCN(c2ccccn2)CC1 (stereo not drawn),131 to 132

row,Structure (SMILES),melting point [°C]
1,CCCC1(CCC)CCC2(CC1)CC(=O)OC(=O)C2,91 to 93
2,CCC(=NO)c1ccc(Oc2cc(F)cc([C@@]3(OC)CCO[C@@H]3C)c2)cc1 (racemic),94 to 96
3,C=CCOC(=O)c1c(-c2ccncc2)[nH]c(-c2ccncc2)c1C,224
4,c1ccc(Cn2ncc3c(NCC4CCCCC4)c4ccccc4nc32)cc1,254 to 256
5,CC(=Cc1ccc(F)cc1)CNC(=O)c1ccc(F)cc1,107 to 109
6,CCN(C(=O)N1CCN(c2cc(OC)cc(OC)c2)CC1)c1nc(C)c(C)nc1OC,78 to 80
7,Cc1cc(OC(F)(F)F)cc2sc(N)nc12,162
8,N#CC(N)=C(C#N)N=C=CCc1cnn(-c2c(Cl)cc(C(F)(F)F)cc2Cl)n1,207 to 209
9,COP(=O)(Cc1ccc(NC(=O)[C@H]2Cc3cc4c(cc3C(=O)[C@H](C)S2)OCO4)cc1)OC,198 to 199
10,CC1CCN(C)c2nc3[nH]c(=O)cc(C(F)(F)F)c3cc21 (stereo not drawn),225 to 230
11,Cc1cc(-n2ccnc2)c2cccc(OCc3c(Cl)ccc(S(=O)(=O)N4CCC[C@H]4C(=O)NCC4CCNCC4)c3Cl)c2n1,150
12,CCCCN1CCCC1CNC(=O)c1cc(Cl)cc2c1SCCN2C (stereo not drawn),108 to 109
13,Cc1ccc2c(c1)C(=O)c1ccc(-c3nnn[nH]3)cc1S2(=O)=O,267
14,N#CC1=C(c2cc3ccccc3s2)Nc2n[nH]cc2C1c1cccc2nonc12 (stereo not drawn),220
15,COc1nc2c(Cl)cccc2s1,55 to 57
16,COc1ccc(S(=O)(=O)CCCc2ccc(CC(=O)O)cc2)cc1,149 to 150
17,CCOC(=O)C(C)C(=O)Nc1cccc(S)c1 (stereo not drawn),73 to 75
18,CSc1ncccc1NC(=O)CCCCCCCCSc1nc2ccccc2s1,107 to 108
19,CC(O)c1cc2c(s1)C(C)(C)CCC2(C)C (stereo not drawn),53 to 55
20,O=c1c2cnc(N3CCCCC3)nc2sn1CCc1ccccn1,109 to 110
21,CCN1C(=O)Cc2cc(C=O)ccc21,126 to 127
22,CC(C)n1cc(-c2ccccc2)c(=O)c(-c2ccccc2)c1,152
23,O=C(Oc1ccc(OC(=O)c2ccc(O)c(O)c2)c2ccccc12)c1ccc(O)c(O)c1,261
24,Cc1c(-c2ccc3c(c2)OCO3)n(Cc2ccc(OCCN3CCCCC3)cc2)c2ccc(O)cc12,122 to 125
25,COc1ccc(C2CCCC(=O)N2c2ccccc2)cc1 (stereo not drawn),77 to 78

row,Structure (SMILES),melting point [°C]
1,O=c1c2cc(F)ccc2nc(CNCc2ccccc2F)n1-c1ccccc1Cl,140
2,O=C1C=C(c2c(Br)cc(Br)cc2Br)C(=O)N1,140 to 143
3,O=C(O)C(NS(=O)(=O)c1ccc(Cl)cc1)C1CCCCC1 (stereo not drawn),120 to 128
4,COc1ccc(N2C[C@@H](COS(C)(=O)=O)OC2=O)cc1,234 to 236
5,CCOc1cc([C@@H](CC(=O)N(C)C)N2Cc3cccc(NCC(C)(C)C)c3C2=O)ccc1OC,111 to 113
6,O=C(c1cc(C2=CC3CCC(C2)N3)ccn1)N(O)Cc1ccccc1 (stereo not drawn),95 to 100
7,O=C(CN1C(=O)c2ccccc2C1=O)NCc1nncn1-c1ccc(Cl)cc1C(=O)c1ccccc1,214 to 215
8,CCOC(=O)c1c(CBr)nc2cc(OC)c(OC)cc2c1-c1ccc(OC)c(OC)c1,135 to 136
9,CC(C)c1ccc(C(Cl)=NO)cc1,61 to 63
10,COc1ccc(OC(=O)CN2CCN(Cc3ccc(OC)c(OC)c3OC)CC2)cc1,68 to 71
11,CCNC(=O)NCC1CC1c1cccn2nc(C)cc12 (stereo not drawn),108 to 110
12,Cc1c(C(F)(F)F)nc2c(C(F)(F)F)cccc2c1Br,81.9 to 82.3
13,CC(C)c1cccc(C(C)C)c1N1C(=O)C(c2ccccc2)=C(c2ccccc2)C1=O,233 to 234
14,N#Cc1nn(-c2c(Cl)cc(C(F)(F)F)cc2Cl)cc1-c1ccoc1Cl,125
15,O=CC(=O)c1ccc2c(c1)CCC2,100 to 112
16,CC(C)(C)OC(=O)N1CCC(c2noc3c(O)c(F)ccc23)CC1,169 to 170
17,CC(C)C(=O)NCCO,54 to 57
18,O=C1CCC(c2ccc(O)cc2)=NN1,157 to 159
19,CCCCCCCCCCCCCCCCS(=O)(=O)NCCc1ccc(OCC(=O)O)cc1,138
20,O=C(O)c1ccc(NN=C2CCCC2)cc1,250 to 253
21,COc1cc(NC(=O)OC(C)(C)C)c(NC(=O)CC(=O)c2cccc(-n3ccnc3C)c2)cc1-c1ccccc1F,83 to 86
22,CCOC(=O)C1=C(C)NC(CO)=C(C(=O)OCC)C1c1ccccc1OC (stereo not drawn),125 to 126
23,CS(=O)(=O)c1ccc2nc(N)[nH]c2c1,233 to 238
